From patent publication US10059713B2 (Takeda Pharmaceutical Company Limited, priority 2014, dated 2018)

target: human GPR43 (Homo sapiens (Human), UniProt O15552); experiment: Ca-Flux functional assay: determination of agonist/positive allosteric modulator (PAM) activity; assay type: cell-based; conditions: CHO-K1 Gα16 cells stably expressing human GPR43; compound added with EC20 sodium acetate; intracellular Ca2+ by FLIPR; does not distinguish agonist from PAM
Outline: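 Agonist or PAM activity read as intracellular Ca2+ rise by FLIPR after adding compound plus EC20 acetate, acetate EC20 set from a prior curve. Cells: CHO-K1 Gα16 with stable human GPR43. EC50 from ten-point half-log curves starting 10 μM.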

Chain of human GPR43 (O15552 whole entry): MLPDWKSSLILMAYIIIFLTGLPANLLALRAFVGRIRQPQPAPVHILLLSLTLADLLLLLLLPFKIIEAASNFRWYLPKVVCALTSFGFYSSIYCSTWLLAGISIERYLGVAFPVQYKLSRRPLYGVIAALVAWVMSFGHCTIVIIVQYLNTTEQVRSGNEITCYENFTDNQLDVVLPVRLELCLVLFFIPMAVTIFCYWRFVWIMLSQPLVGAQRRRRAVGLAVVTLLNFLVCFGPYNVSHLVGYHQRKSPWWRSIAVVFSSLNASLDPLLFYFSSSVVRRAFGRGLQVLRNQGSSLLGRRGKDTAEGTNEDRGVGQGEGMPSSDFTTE

Row | SMILES | EC50 [nM]
1 | CC1CC1COc1ncnc2c(S(=O)(=O)c3ccccc3)c(N)[nH]c12 (centres unmarked) [Example 172, 7-(benzenesulfonyl)-4-[(2-methylcyclopropyl)methoxy]-5H-pyrrolo[3,2-d]pyrimidin-6-amine] | 78
2 | C[C@@H](Oc1ncnc2c(S(=O)(=O)c3ccccc3)c(N)[nH]c12)c1ccccn1 [Example 162, 7-(benzenesulfonyl)-4-[(1R)-1-(pyridin-2-yl)ethoxy]-5H-pyrrolo[3,2-d]pyrimidin-6-amine] | 141
3 | Nc1[nH]c2c(N3CCCCCC3)ncnc2c1S(=O)(=O)c1ccccc1 [Example 48, 4-(azepan-1-yl)-7-(benzenesulfonyl)-5H-pyrrolo[3,2-d]pyrimidin-6-amine] | 209
4 | Nc1[nH]c2c(N3CCOC(C4CC4)C3)ncnc2c1S(=O)(=O)c1ccccc1 (centres unmarked) [Example 80, 7-(benzenesulfonyl)-4-(2-cyclopropylmorpholin-4-yl)-5H-pyrrolo[3,2-d]pyrimidin-6-amine] | 133
5 | CCNc1ncnc2c(S(=O)(=O)c3ccccc3)c(N)[nH]c12 [Example 65, 7-(benzenesulfonyl)-4-N-ethyl-5H-pyrrolo[3,2-d]pyrimidine-4,6-diamine] | 6820
6 | Cc1nc(OC(C)C2CCC2)c2[nH]c(N)c(S(=O)(=O)c3ccccc3)c2n1 (centres unmarked) [Example 256, 7-(benzenesulfonyl)-4-(1-cyclobutylethoxy)-2-methyl-5H-pyrrolo[3,2-d]pyrimidin-6-amine] | 18
7 | Nc1[nH]c2c(C3=CCCCC3)nccc2c1S(=O)(=O)c1ccccc1 [Example 18, 3-(benzenesulfonyl)-7-(cyclohex-1-en-1-yl)-1H-pyrrolo[2,3-c]pyridin-2-amine] | 528
8 | Cc1nc(N2C[C@@H](C)O[C@H](C)C2)c2[nH]c(N)c(S(=O)(=O)c3ccccc3F)c2n1 [Example 203, 4-[(2R,6R)-2,6-dimethylmorpholin-4-yl]-7-(2-fluorobenzenesulfonyl)-2-methyl-5H-pyrrolo[3,2-d]pyrimidin-6-amine] | 11
9 | Cc1nc(N2CCOC3(CCC3)C2)c2[nH]c(N)c(S(=O)(=O)c3ccccc3F)c2n1 [Example 237, 7-(2-fluorobenzenesulfonyl)-2-methyl-4-{5-oxa-8-azaspiro[3.5]nonan-8-yl}-5H-pyrrolo[3,2-d]pyrimidin-6-amine] | 8
10 | CCN(C)c1ncnc2c(S(=O)(=O)c3ccccc3)c(N)[nH]c12 [Example 97, 7-(benzenesulfonyl)-4-N-ethyl-4-N-methyl-5H-pyrrolo[3,2-d]pyrimidine-4,6-diamine] | 447
11 | COc1ccc(S(=O)(=O)c2c(N)[nH]c3c(C4CCCCC4)ncnc23)cn1 [Example 44, 4-cyclohexyl-7-(6-methoxypyridine-3-sulfonyl)-5H-pyrrolo[3,2-d]pyrimidin-6-amine] | 173
12 | Cc1nc(N2C[C@@H](C)O[C@@H](C)C2)c2[nH]c(N)c(S(=O)(=O)c3ccccc3F)c2n1 [Example 187, 4-[(2R,6S)-2,6-dimethylmorpholin-4-yl]-7-(2-fluorobenzenesulfonyl)-2-methyl-5H-pyrrolo[3,2-d]pyrimidin-6-amine] | 5
13 | Nc1[nH]c2c(N3CCCC4(COC4)C3)ncnc2c1S(=O)(=O)c1ccccc1 [Example 150, 7-(benzenesulfonyl)-4-{2-oxa-6-azaspiro[3.5]nonan-6-yl}-5H-pyrrolo[3,2-d]pyrimidin-6-amine] | 933
14 | Cc1nc(N2CCCC(C)C2)c2[nH]c(N)c(S(=O)(=O)c3cccc(F)c3)c2n1 (centres unmarked) [Example 198, 7-(3-fluorobenzenesulfonyl)-2-methyl-4-(3-methylpiperidin-1-yl)-5H-pyrrolo[3,2-d]pyrimidin-6-amine] | 31
15 | Cc1nc(N2CCOC(C)(C)C2)c2[nH]c(N)c(S(=O)(=O)c3ccc(Cl)cc3F)c2n1 [Example 279, 7-(4-chloro-2-fluorobenzenesulfonyl)-4-(2,2-dimethylmorpholin-4-yl)-2-methyl-5H-pyrrolo[3,2-d]pyrimidin-6-amine] | 4
16 | Nc1[nH]c2cc(Cl)cnc2c1S(=O)(=O)c1ccccc1 [Example 10, 3-(benzenesulfonyl)-6-chloro-1H-pyrrolo[3,2-b]pyridin-2-amine] | 626
17 | CCc1nc(C2=CCCCC2)c2[nH]c(N)c(S(=O)(=O)c3ccccc3)c2n1 [Example 41, 7-(benzenesulfonyl)-4-(cyclohex-1-en-1-yl)-2-ethyl-5H-pyrrolo[3,2-d]pyrimidin-6-amine] | 37
18 | CC1COCCN1c1ncnc2c(S(=O)(=O)c3ccccc3)c(N)[nH]c12 (centres unmarked) [Example 54, 7-(benzenesulfonyl)-4-(3-methylmorpholin-4-yl)-5H-pyrrolo[3,2-d]pyrimidin-6-amine] | 211
19 | Cc1nc(N2CCOC(CF)C2)c2[nH]c(N)c(S(=O)(=O)c3ccccc3F)c2n1 (centres unmarked) [Example 266, 7-(2-fluorobenzenesulfonyl)-4-[2-(fluoromethyl)morpholin-4-yl]-2-methyl-5H-pyrrolo[3,2-d]pyrimidin-6-amine] | 3

Row | SMILES | EC50 [nM]
20 | Nc1[nH]c2c(N3CCC(F)(F)CC3)ccnc2c1S(=O)(=O)c1ccccc1 [Example 219, 3-(benzenesulfonyl)-7-(4,4-difluoropiperidin-1-yl)-1H-pyrrolo[3,2-b]pyridin-2-amine] | 18
21 | Cc1nc(OC2CCC2)c2[nH]c(N)c(S(=O)(=O)c3ccccc3F)c2n1 [Example 260, 4-cyclobutoxy-7-(2-fluorobenzenesulfonyl)-2-methyl-5H-pyrrolo[3,2-d]pyrimidin-6-amine] | 10
22 | Cc1nc(N2CCOC3(CC3)C2)c2[nH]c(N)c(S(=O)(=O)c3cccc(F)c3)c2n1 [Example 192, 7-(3-fluorobenzenesulfonyl)-2-methyl-4-{4-oxa-7-azaspiro[2.5]octan-7-yl}-5H-pyrrolo[3,2-d]pyrimidin-6-amine] | 31
23 | Cc1nc(OC(C)C2CCCC2)c2[nH]c(N)c(S(=O)(=O)c3ccccc3)c2n1 (centres unmarked) [Example 247, 7-(benzenesulfonyl)-4-(1-cyclopentylethoxy)-2-methyl-5H-pyrrolo[3,2-d]pyrimidin-6-amine] | 16
24 | Cc1nc(N2CCOC(C)(C)C2)c2[nH]c(N)c(S(=O)(=O)c3cccc(F)c3)c2n1 [Example 191, 4-(2,2-dimethylmorpholin-4-yl)-7-(3-fluorobenzenesulfonyl)-2-methyl-5H-pyrrolo[3,2-d]pyrimidin-6-amine] | 43
25 | Nc1[nH]c2c(C3CCCCC3)cncc2c1S(=O)(=O)c1ccccc1 [Example 32, 3-(benzenesulfonyl)-7-cyclohexyl-1H-pyrrolo[3,2-c]pyridin-2-amine] | 37
26 | Cc1nc(N2CCC3(CC2)CC3)c2[nH]c(N)c(S(=O)(=O)c3ccccc3F)c2n1 [Example 214, 4-{6-azaspiro[2.5]octan-6-yl}-7-(2-fluorobenzenesulfonyl)-2-methyl-5H-pyrrolo[3,2-d]pyrimidin-6-amine] | 9
27 | C=C(C)c1nc(C)nc2c(S(=O)(=O)c3ccccc3)c(N)[nH]c12 [Example 149, 7-(benzenesulfonyl)-2-methyl-4-(prop-1-en-2-yl)-5H-pyrrolo[3,2-d]pyrimidin-6-amine] | 252
28 | COc1ccc(S(=O)(=O)c2c(N)[nH]c3c(N4CCO[C@@H](C(F)(F)F)C4)nc(C)nc23)c(F)c1 [Example 293, 7-(2-fluoro-4-methoxybenzenesulfonyl)-2-methyl-4-[(2R)-2-(trifluoromethyl)morpholin-4-yl]-5H-pyrrolo[3,2-d]pyrimidin-6-amine] | 2
29 | Nc1[nH]c2c(N3CCC(OCC4CC4)CC3)ncnc2c1S(=O)(=O)c1ccccc1 [Example 116, 7-(benzenesulfonyl)-4-[4-(cyclopropylmethoxy)piperidin-1-yl]-5H-pyrrolo[3,2-d]pyrimidin-6-amine] | 80
30 | CCOC1CCCN(c2ncnc3c(S(=O)(=O)c4ccccc4)c(N)[nH]c23)C1 (centres unmarked) [Example 113, 7-(benzenesulfonyl)-4-(3-ethoxypiperidin-1-yl)-5H-pyrrolo[3,2-d]pyrimidin-6-amine] | 858
31 | Cc1nc(N2CCOC(C)(C)C2)c2[nH]c(N)c(S(=O)(=O)c3c(F)cccc3F)c2n1 [Example 287, 7-(2,6-difluorobenzenesulfonyl)-4-(2,2-dimethylmorpholin-4-yl)-2-methyl-5H-pyrrolo[3,2-d]pyrimidin-6-amine] | 9
32 | Cc1nc(N2CCC(F)(F)CC2)c2[nH]c(N)c(S(=O)(=O)c3ccccc3F)c2n1 [Example 186, 4-(4,4-difluoropiperidin-1-yl)-7-(2-fluorobenzenesulfonyl)-2-methyl-5H-pyrrolo[3,2-d]pyrimidin-6-amine] | 14
33 | COc1cc(F)ccc1S(=O)(=O)c1c(N)[nH]c2c(N3CCOC(C)C3)ncnc12 (centres unmarked) [Example 222, 7-(4-fluoro-2-methoxybenzenesulfonyl)-4-(2-methylmorpholin-4-yl)-5H-pyrrolo[3,2-d]pyrimidin-6-amine] | 4040
34 | CCC1CN(c2ncnc3c(S(=O)(=O)c4ccccc4)c(N)[nH]c23)CCS1 (centres unmarked) [Example 196, 7-(benzenesulfonyl)-4-(2-ethylthiomorpholin-4-yl)-5H-pyrrolo[3,2-d]pyrimidin-6-amine] | 10
35 | Nc1[nH]c2c(OCC3CCCC3)ncnc2c1S(=O)(=O)c1ccccc1 [Example 201, 7-(benzenesulfonyl)-4-(cyclopentylmethoxy)-5H-pyrrolo[3,2-d]pyrimidin-6-amine] | 50
36 | Nc1[nH]c2c(C3=CCCCC3)ncnc2c1Sc1ccccc1 [Example 135, 4-(cyclohex-1-en-1-yl)-7-(phenylsulfanyl)-5H-pyrrolo[3,2-d]pyrimidin-6-amine] | 235
37 | Cc1nc(N2CCOC(C)C2)c2[nH]c(N)c(S(=O)(=O)c3cc(F)ccc3F)c2n1 (centres unmarked) [Example 229, 7-(2,5-difluorobenzenesulfonyl)-2-methyl-4-(2-methylmorpholin-4-yl)-5H-pyrrolo[3,2-d]pyrimidin-6-amine] | 7
38 | Nc1[nH]c2c(N3CCCC3)ncnc2c1S(=O)(=O)c1ccccc1 [Example 31, 7-(benzenesulfonyl)-4-(pyrrolidin-1-yl)-5H-pyrrolo[3,2-d]pyrimidin-6-amine] | 720
